What all share (type): ADME
The subject of one data set is Liver microsome. In words: Drug metabolism in human liver microsomes assessed as drug glucuronidation in presence of 50 estradiol by LC-MS/MS method.
Data set [1] is described as follows: Drug metabolism in human liver microsomes assessed as drug glucuronidation in absence of BSA by LC-MS/MS method.
For data set [2], the target named is T1, UDP-glucuronosyltransferase 2B17 (Homo sapiens, UniProt O75795).
T1 sequence (O75795 whole entry): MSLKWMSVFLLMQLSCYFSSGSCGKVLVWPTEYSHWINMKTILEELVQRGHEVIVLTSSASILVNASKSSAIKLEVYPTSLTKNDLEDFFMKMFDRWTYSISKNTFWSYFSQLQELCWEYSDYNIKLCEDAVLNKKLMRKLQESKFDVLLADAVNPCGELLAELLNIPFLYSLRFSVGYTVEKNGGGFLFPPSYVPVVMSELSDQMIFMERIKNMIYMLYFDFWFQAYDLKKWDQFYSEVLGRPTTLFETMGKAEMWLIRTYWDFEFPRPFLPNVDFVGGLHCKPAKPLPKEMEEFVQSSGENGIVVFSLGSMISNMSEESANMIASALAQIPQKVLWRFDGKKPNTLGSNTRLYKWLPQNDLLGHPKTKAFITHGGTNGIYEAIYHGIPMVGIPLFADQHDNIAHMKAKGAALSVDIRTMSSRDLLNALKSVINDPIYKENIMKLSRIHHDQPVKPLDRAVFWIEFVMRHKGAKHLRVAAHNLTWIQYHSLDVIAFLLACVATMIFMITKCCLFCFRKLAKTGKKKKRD
As to the kind of experiment: Activity of human recombinant UGT2B17 expressed in insect cells assessed as enzyme mediated glucuronidation at 12.5 uM by LC-MS/MS method.

Data set [3] in a line: Drug metabolism in human kidney microsomes assessed as drug glucuronidation in absence of BSA by LC-MS/MS method.
Data set [4] has as its target T2, UDP-glucuronosyltransferase 2B7 (Homo sapiens, UniProt P16662).
T2 sequence (P16662 whole entry): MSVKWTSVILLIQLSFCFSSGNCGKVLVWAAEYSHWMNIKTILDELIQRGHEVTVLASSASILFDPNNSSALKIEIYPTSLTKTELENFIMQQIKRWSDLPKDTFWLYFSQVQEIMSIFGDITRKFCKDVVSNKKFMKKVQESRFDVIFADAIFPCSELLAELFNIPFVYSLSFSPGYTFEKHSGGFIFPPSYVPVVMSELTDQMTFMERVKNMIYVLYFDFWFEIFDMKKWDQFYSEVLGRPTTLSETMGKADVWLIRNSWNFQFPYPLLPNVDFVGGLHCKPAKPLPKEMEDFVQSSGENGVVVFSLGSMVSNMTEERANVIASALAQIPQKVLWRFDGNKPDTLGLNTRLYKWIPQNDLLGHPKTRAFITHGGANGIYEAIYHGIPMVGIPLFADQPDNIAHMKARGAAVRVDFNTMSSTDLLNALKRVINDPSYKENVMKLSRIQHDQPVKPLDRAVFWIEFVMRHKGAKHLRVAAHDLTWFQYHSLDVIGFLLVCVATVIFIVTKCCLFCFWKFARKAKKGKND
In words: Activity of human recombinant UGT2B7 expressed in insect cells assessed as enzyme mediated glucuronidation in presence of […] naloxone by LC-MS/MS method.

For data set [5], the target named is T3, UDP-glucuronosyltransferase 1A1 (Homo sapiens, UniProt P22309).
T3 sequence (P22309 whole entry): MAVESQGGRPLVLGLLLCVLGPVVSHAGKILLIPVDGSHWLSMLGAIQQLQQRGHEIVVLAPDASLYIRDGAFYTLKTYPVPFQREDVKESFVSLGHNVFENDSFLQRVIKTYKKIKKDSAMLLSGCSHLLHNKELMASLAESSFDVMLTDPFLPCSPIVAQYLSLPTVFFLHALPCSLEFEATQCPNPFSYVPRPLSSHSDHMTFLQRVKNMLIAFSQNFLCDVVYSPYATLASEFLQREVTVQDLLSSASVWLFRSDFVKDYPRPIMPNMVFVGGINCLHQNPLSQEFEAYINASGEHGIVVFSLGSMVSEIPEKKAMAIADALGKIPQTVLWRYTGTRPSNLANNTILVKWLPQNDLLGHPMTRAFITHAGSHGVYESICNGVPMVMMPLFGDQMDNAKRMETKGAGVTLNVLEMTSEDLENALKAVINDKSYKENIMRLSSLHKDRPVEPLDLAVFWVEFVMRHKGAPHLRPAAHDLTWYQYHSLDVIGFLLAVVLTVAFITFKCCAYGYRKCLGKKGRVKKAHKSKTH
In words: Activity of human recombinant UGT1A1 expressed in insect cells assessed as intrinsic clearance for enzyme mediated glucuronidation per mg protein by LC-MS/MS method.

The nature of data set [6]: Drug metabolism in human kidney microsomes assessed as drug glucuronidation per mg tissue in presence of BSA by LC-MS/MS method.
Data set [7] can be described thus: Drug metabolism in human kidney microsomes assessed as drug glucuronidation in presence of 100 to 1000 uM propofol by LC-MS/MS method.
Data set [8] concerns the target T4, UDP-glucuronosyltransferase 1A7 (Homo sapiens, UniProt Q9HAW7).
T4 sequence (Q9HAW7 whole entry): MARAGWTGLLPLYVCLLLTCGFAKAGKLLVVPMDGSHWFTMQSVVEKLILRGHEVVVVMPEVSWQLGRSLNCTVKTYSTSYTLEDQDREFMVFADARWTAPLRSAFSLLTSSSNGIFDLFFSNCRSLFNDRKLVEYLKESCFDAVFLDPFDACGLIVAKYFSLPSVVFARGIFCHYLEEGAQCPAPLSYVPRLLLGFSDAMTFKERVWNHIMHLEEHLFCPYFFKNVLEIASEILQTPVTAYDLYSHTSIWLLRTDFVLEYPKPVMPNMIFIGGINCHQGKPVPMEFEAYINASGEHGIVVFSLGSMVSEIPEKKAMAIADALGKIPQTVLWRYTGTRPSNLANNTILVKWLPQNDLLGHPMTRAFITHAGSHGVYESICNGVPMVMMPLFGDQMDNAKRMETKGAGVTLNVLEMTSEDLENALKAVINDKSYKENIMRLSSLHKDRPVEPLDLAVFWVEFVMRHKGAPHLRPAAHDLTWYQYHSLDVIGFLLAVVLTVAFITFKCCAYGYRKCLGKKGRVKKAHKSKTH
In words: Activity of human recombinant UGT1A7 expressed in insect cells assessed as intrinsic clearance for enzyme mediated glucuronidation per mg protein by LC-MS/MS method.

With `CC1=NN(c2ccccc2)C(=O)C1` [EDARAVONE], the Drug metabolism entry in the data set on Liver microsome is given as “metabolite_not_detected”; in [2], “metabolite_detected”; in data set [4] it was “metabolite_not_detected”; in [7], “metabolite_not_detected”. Also, the Km came to 36.7 µM in [1] (read-out: KmH), 5880 µM in data set [1] (read-out: KmL), 7.4 µM in [3] (read-out: KmH) and 1360 µM in data set [3] (read-out: KmL). The CL(high) in [5] stood at 0.2 µL/min/mg. Further, the VmaxH in data set [6] was 696 pmol/min/g. The VmaxL in data set [6] is reported as 5265 pmol/min/g. Further, in data set [8], the CL stood at 1.7 µL/min/g.

Values taken from ChEMBL document CHEMBL3526061, “Glucuronidation of edaravone by human liver and kidney microsomes: biphasic kinetics and identification of UGT1A9 as the major UDP-glucuronosyltransferase isoform” (Drug Metab Dispos, 2012).
